Test results reported in ChEMBL document CHEMBL3885861, “Open TG-GATES”.

Species: Rattus norvegicus
Experiment: Open TG-GATES - Regimen: Single
Format: toxicity, organism-based, Sprague-Dawley
Set-up: regimen Single, gender Male, age 6 weeks
Details: in vivo, po, route gavage; for APTT / Bas / Eos / Fbg / Hb / Ht / Lym / MCH / MCHC / MCV / Mono / Neu / PT / Plat / RBC / Ret / WBC: tissue Blood; for KIDNEY_L / KIDNEY_R / KIDNEY_TOTAL: tissue Kidney; for ALP / ALT / AST / CRE / Cl / DBIL / GLC / IP / K / LDH / Na / PL / RALB / TBIL / TC / TG / TP / gamma-GTP: tissue Plasma

COc1cc2c(c(OC)c1OC)-c1ccc(OC)c(=O)cc1[C@@H](NC(C)=O)CC2 [COLCHICINE]
APTT (2 mg/kg, 3 h, dose level Low): 16.6 s | Bas (2 mg/kg, 3 h, dose level Low): 0% | Eos (2 mg/kg, 3 h, dose level Low): 1% | Fbg (2 mg/kg, 3 h, dose level Low): 218.6 mg/dL | Hb (2 mg/kg, 3 h, dose level Low): 13.5 g/dL | Ht (2 mg/kg, 3 h, dose level Low): 40.7% | Lym (2 mg/kg, 3 h, dose level Low): 84.4% | MCH (2 mg/kg, 3 h, dose level Low): 21.9 pg | MCHC (2 mg/kg, 3 h, dose level Low): 33.2% | MCV (2 mg/kg, 3 h, dose level Low): 66.1 fL | Mono (2 mg/kg, 3 h, dose level Low): 6.2% | Neu (2 mg/kg, 3 h, dose level Low): 8.8% | PT (2 mg/kg, 3 h, dose level Low): 11.8 s | Plat (2 mg/kg, 3 h, dose level Low): 109.4 x10_4/uL | RBC (2 mg/kg, 3 h, dose level Low): 616.8 x10_4/ul | Ret (2 mg/kg, 3 h, dose level Low): 10.2% | WBC (2 mg/kg, 3 h, dose level Low): 106.7 x10_2/uL | KIDNEY_L (2 mg/kg, 3 h, dose level Low): 1 g | KIDNEY_R (2 mg/kg, 3 h, dose level Low): 1 g | KIDNEY_TOTAL (2 mg/kg, 3 h, dose level Low): 2 g | ALP (2 mg/kg, 3 h, dose level Low): 946.8 IU/L | ALT (2 mg/kg, 3 h, dose level Low): 41.6 IU/L | AST (2 mg/kg, 3 h, dose level Low): 84.4 IU/L | CRE (2 mg/kg, 3 h, dose level Low): 0.5 mg/dL | Cl (2 mg/kg, 3 h, dose level Low): 104 meq/L | DBIL (2 mg/kg, 3 h, dose level Low): 0.01 mg/dL | GLC (2 mg/kg, 3 h, dose level Low): 199.8 mg/dL | IP (2 mg/kg, 3 h, dose level Low): 9.3 mg/dL | K (2 mg/kg, 3 h, dose level Low): 4.7 meq/L | LDH (2 mg/kg, 3 h, dose level Low): 137.8 IU/L | Na (2 mg/kg, 3 h, dose level Low): 140.2 meq/L | PL (2 mg/kg, 3 h, dose level Low): 143.6 mg/dL | RALB (2 mg/kg, 3 h, dose level Low): 3.7 g/dL | TBIL (2 mg/kg, 3 h, dose level Low): 0.4 mg/dL | TC (2 mg/kg, 3 h, dose level Low): 80.6 mg/dL | TG (2 mg/kg, 3 h, dose level Low): 57.6 mg/dL | TP (2 mg/kg, 3 h, dose level Low): 5.5 g/dL | gamma-GTP (2 mg/kg, 3 h, dose level Low): 1.8 IU/L | TERMINAL_BW (2 mg/kg, 6 h, dose level Low): 217.7 g | APTT (2 mg/kg, 6 h, dose level Low): 16.3 s | Bas (2 mg/kg, 6 h, dose level Low): 0% | Eos (2 mg/kg, 6 h, dose level Low): 1% | Fbg (2 mg/kg, 6 h, dose level Low): 218.8 mg/dL | Hb (2 mg/kg, 6 h, dose level Low): 13.4 g/dL | Ht (2 mg/kg, 6 h, dose level Low): 40.8% | Lym (2 mg/kg, 6 h, dose level Low): 81% | MCH (2 mg/kg, 6 h, dose level Low): 21.6 pg | MCHC (2 mg/kg, 6 h, dose level Low): 32.7% | MCV (2 mg/kg, 6 h, dose level Low): 65.9 fL | Mono (2 mg/kg, 6 h, dose level Low): 6.8% | Neu (2 mg/kg, 6 h, dose level Low): 11.2% | PT (2 mg/kg, 6 h, dose level Low): 11.9 s | Plat (2 mg/kg, 6 h, dose level Low): 109.8 x10_4/uL | RBC (2 mg/kg, 6 h, dose level Low): 620 x10_4/ul | Ret (2 mg/kg, 6 h, dose level Low): 9.8% | WBC (2 mg/kg, 6 h, dose level Low): 115.2 x10_2/uL | KIDNEY_L (2 mg/kg, 6 h, dose level Low): 0.9 g | KIDNEY_R (2 mg/kg, 6 h, dose level Low): 0.9 g | KIDNEY_TOTAL (2 mg/kg, 6 h, dose level Low): 1.9 g | ALT (2 mg/kg, 6 h, dose level Low): 40.8 IU/L | AST (2 mg/kg, 6 h, dose level Low): 81.8 IU/L | CRE (2 mg/kg, 6 h, dose level Low): 0.5 mg/dL | Cl (2 mg/kg, 6 h, dose level Low): 104.4 meq/L | DBIL (2 mg/kg, 6 h, dose level Low): 0.03 mg/dL | GLC (2 mg/kg, 6 h, dose level Low): 188.6 mg/dL | IP (2 mg/kg, 6 h, dose level Low): 9.8 mg/dL | K (2 mg/kg, 6 h, dose level Low): 4.7 meq/L | LDH (2 mg/kg, 6 h, dose level Low): 113.6 IU/L | Na (2 mg/kg, 6 h, dose level Low): 140.2 meq/L | PL (2 mg/kg, 6 h, dose level Low): 131.6 mg/dL | RALB (2 mg/kg, 6 h, dose level Low): 3.7 g/dL | TBIL (2 mg/kg, 6 h, dose level Low): 0.4 mg/dL | TC (2 mg/kg, 6 h, dose level Low): 73 mg/dL | TG (2 mg/kg, 6 h, dose level Low): 49.6 mg/dL | TP (2 mg/kg, 6 h, dose level Low): 5.5 g/dL | gamma-GTP (2 mg/kg, 6 h, dose level Low): 1.2 IU/L | TERMINAL_BW (2 mg/kg, 9 h, dose level Low): 215.3 g | APTT (2 mg/kg, 9 h, dose level Low): 16.2 s | Bas (2 mg/kg, 9 h, dose level Low): 0% | Eos (2 mg/kg, 9 h, dose level Low): 0.8% | Fbg (2 mg/kg, 9 h, dose level Low): 212.4 mg/dL | Hb (2 mg/kg, 9 h, dose level Low): 12.9 g/dL | Ht (2 mg/kg, 9 h, dose level Low): 39% | Lym (2 mg/kg, 9 h, dose level Low): 72.2% | MCH (2 mg/kg, 9 h, dose level Low): 21.2 pg | MCHC (2 mg/kg, 9 h, dose level Low): 33.1% | MCV (2 mg/kg, 9 h, dose level Low): 64.1 fL | Mono (2 mg/kg, 9 h, dose level Low): 11.8% | Neu (2 mg/kg, 9 h, dose level Low): 15.6% | PT (2 mg/kg, 9 h, dose level Low): 11.7 s | Plat (2 mg/kg, 9 h, dose level Low): 114.1 x10_4/uL | RBC (2 mg/kg, 9 h, dose level Low): 609.6 x10_4/ul | Ret (2 mg/kg, 9 h, dose level Low): 9.8% | WBC (2 mg/kg, 9 h, dose level Low): 101.3 x10_2/uL | KIDNEY_L (2 mg/kg, 9 h, dose level Low): 1 g | KIDNEY_R (2 mg/kg, 9 h, dose level Low): 1 g | KIDNEY_TOTAL (2 mg/kg, 9 h, dose level Low): 2 g | ALP (2 mg/kg, 9 h, dose level Low): 888 IU/L | ALT (2 mg/kg, 9 h, dose level Low): 47.6 IU/L | AST (2 mg/kg, 9 h, dose level Low): 93.4 IU/L | CRE (2 mg/kg, 9 h, dose level Low): 0.5 mg/dL | Cl (2 mg/kg, 9 h, dose level Low): 105.2 meq/L | DBIL (2 mg/kg, 9 h, dose level Low): 0.072 mg/dL | GLC (2 mg/kg, 9 h, dose level Low): 189.2 mg/dL | IP (2 mg/kg, 9 h, dose level Low): 9.4 mg/dL | K (2 mg/kg, 9 h, dose level Low): 4.8 meq/L | LDH (2 mg/kg, 9 h, dose level Low): 115 IU/L | Na (2 mg/kg, 9 h, dose level Low): 137.4 meq/L | PL (2 mg/kg, 9 h, dose level Low): 130 mg/dL | RALB (2 mg/kg, 9 h, dose level Low): 3.7 g/dL | TBIL (2 mg/kg, 9 h, dose level Low): 0.4 mg/dL | TC (2 mg/kg, 9 h, dose level Low): 80.4 mg/dL | TG (2 mg/kg, 9 h, dose level Low): 36.2 mg/dL | TP (2 mg/kg, 9 h, dose level Low): 5.4 g/dL | gamma-GTP (2 mg/kg, 9 h, dose level Low): 1.4 IU/L | TERMINAL_BW (2 mg/kg, 24 h, dose level Low): 231.9 g | APTT (2 mg/kg, 24 h, dose level Low): 17.8 s | Bas (2 mg/kg, 24 h, dose level Low): 0% | Eos (2 mg/kg, 24 h, dose level Low): 1% | Fbg (2 mg/kg, 24 h, dose level Low): 213 mg/dL | Hb (2 mg/kg, 24 h, dose level Low): 12.8 g/dL | Ht (2 mg/kg, 24 h, dose level Low): 38.5% | Lym (2 mg/kg, 24 h, dose level Low): 79.6% | MCH (2 mg/kg, 24 h, dose level Low): 22.1 pg | MCHC (2 mg/kg, 24 h, dose level Low): 33.3% | MCV (2 mg/kg, 24 h, dose level Low): 66.4 fL | Mono (2 mg/kg, 24 h, dose level Low): 7.6% | Neu (2 mg/kg, 24 h, dose level Low): 11.8% | PT (2 mg/kg, 24 h, dose level Low): 11.3 s | Plat (2 mg/kg, 24 h, dose level Low): 108 x10_4/uL | RBC (2 mg/kg, 24 h, dose level Low): 580.6 x10_4/ul | Ret (2 mg/kg, 24 h, dose level Low): 9.1% | WBC (2 mg/kg, 24 h, dose level Low): 127.4 x10_2/uL | KIDNEY_L (2 mg/kg, 24 h, dose level Low): 1.1 g | KIDNEY_R (2 mg/kg, 24 h, dose level Low): 1.1 g | KIDNEY_TOTAL (2 mg/kg, 24 h, dose level Low): 2.1 g | ALP (2 mg/kg, 24 h, dose level Low): 972.6 IU/L | ALT (2 mg/kg, 24 h, dose level Low): 37.2 IU/L | AST (2 mg/kg, 24 h, dose level Low): 69 IU/L | CRE (2 mg/kg, 24 h, dose level Low): 0.6 mg/dL | Cl (2 mg/kg, 24 h, dose level Low): 103.4 meq/L | DBIL (2 mg/kg, 24 h, dose level Low): 0.05 mg/dL | GLC (2 mg/kg, 24 h, dose level Low): 201.2 mg/dL | IP (2 mg/kg, 24 h, dose level Low): 6.6 mg/dL | K (2 mg/kg, 24 h, dose level Low): 4.4 meq/L | LDH (2 mg/kg, 24 h, dose level Low): 113 IU/L | Na (2 mg/kg, 24 h, dose level Low): 139 meq/L | PL (2 mg/kg, 24 h, dose level Low): 156.6 mg/dL | RALB (2 mg/kg, 24 h, dose level Low): 3.8 g/dL | TBIL (2 mg/kg, 24 h, dose level Low): 0.4 mg/dL | TC (2 mg/kg, 24 h, dose level Low): 83.6 mg/dL | TG (2 mg/kg, 24 h, dose level Low): 125.8 mg/dL | TP (2 mg/kg, 24 h, dose level Low): 5.7 g/dL | gamma-GTP (2 mg/kg, 24 h, dose level Low): 1 IU/L | TERMINAL_BW (5 mg/kg, 3 h, dose level Middle): 224.6 g
